Reference: the supplement of paper PMC10307832

How the values were obtained:
Experiment in all cases: relative viability (nuclei count vs DMSO), 5 days (fraction); higher = more cells survive
[1] = compound: COc1cc(-c2nn([C@H]3CC[C@H](N4CCN(C(C)=O)CC4)CC3)c3ncnc(N)c23)ccc1NC(=O)c1cc2ccccc2n1C + CCNC(=O)c1noc(-c2cc(C(C)C)c(O)cc2O)c1-c1ccc(CN2CCOCC2)cc1 [Luminespib] (partner 0.01 µM)
Outline: (§1)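 Values are medians from duplicate plates. Each reflects relative viability, defined as the nuclei count of treated wells over that of vehicle wells. Lung cancer cell lines in 1536-well plates were pin-tool dosed one day after seeding with one drug alone or with a fixed anchor-drug dose plus five library-drug doses (not always all listed) in √10 steps, then fixed, stained and imaged at 4× after 5 days.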

[2] = compound: COc1cc(-c2nn([C@H]3CC[C@H](N4CCN(C(C)=O)CC4)CC3)c3ncnc(N)c23)ccc1NC(=O)c1cc2ccccc2n1C + Cc1cc(Nc2cc(N3CCN(C)CC3)nc(Sc3ccc(NC(=O)C4CC4)cc3)n2)n[nH]1 [Tozasertib] (partner 0.1 µM)
Outline: as §1

[3] = compound: COc1cc(-c2nn([C@H]3CC[C@H](N4CCN(C(C)=O)CC4)CC3)c3ncnc(N)c23)ccc1NC(=O)c1cc2ccccc2n1C + O=C(c1cc(Cc2n[nH]c(=O)c3ccccc23)ccc1F)N1CCN(C(=O)C2CC2)CC1 [Olaparib] (partner 8 µM)
Outline: as §1

[4] = compound: COc1cc(-c2nn([C@H]3CC[C@H](N4CCN(C(C)=O)CC4)CC3)c3ncnc(N)c23)ccc1NC(=O)c1cc2ccccc2n1C + COc1cc2c(Oc3ccc(NC(=O)C4(C(=O)Nc5ccc(F)cc5)CC4)cc3F)ccnc2cc1OCCCN1CCOCC1 [Foretinib] (partner 0.25 µM)
Outline: as §1

[5] = compound: CO[C@@H]1[C@H](N(C)C(=O)c2ccccc2)C[C@H]2O[C@]1(C)n1c3ccccc3c3c4c(c5c6ccccc6n2c5c31)C(=O)NC4 [Midostaurin] + Nc1nc2[nH]cc(CCc3ccc(C(=O)N[C@@H](CCC(=O)O)C(=O)O)cc3)c2c(=O)[nH]1 [Pemetrexed] (partner 0.2 µM)
Outline: as §1

Cell Line	relative viability ([1]; first compound 0.0128 µM)	relative viability ([1]; first compound 0.04048 µM)	relative viability ([1]; first compound 0.128 µM)	relative viability ([1]; first compound 1.28 µM)	relative viability ([2]; first compound 0.0128 µM)	relative viability ([2]; first compound 0.04048 µM)	relative viability ([2]; first compound 0.128 µM)	relative viability ([2]; first compound 1.28 µM)	relative viability ([3]; first compound 0.0128 µM)	relative viability ([3]; first compound 0.04048 µM)	relative viability ([3]; first compound 0.128 µM)	relative viability ([3]; first compound 1.28 µM)	relative viability ([4]; first compound 0.0128 µM)	relative viability ([4]; first compound 0.04048 µM)	relative viability ([4]; first compound 0.128 µM)	relative viability ([4]; first compound 1.28 µM)	relative viability ([5]; first compound 0.01 µM)	relative viability ([5]; first compound 0.03162 µM)	relative viability ([5]; first compound 0.1 µM)	relative viability ([5]; first compound 0.3162 µM)
NCI-H1993	0.768	0.825	0.589	0.767	0.568	0.534	0.56	0.546	0.997	1.11	0.885	0.891	0.747	0.743	0.784	0.556	0.627	0.542	0.597	0.51
NCI-H322M	0.887	0.935	0.756	0.483	0.509	0.472	0.445	0.341	0.818	0.801	0.693	0.691	1.03	1.11	0.878	0.785	0.692	0.527	0.677	0.677
NCI-H838	0.343	0.303	0.243	0.261	0.287	0.289	0.322	0.209	0.799	0.807	0.741	0.471	1.01	0.989	0.973	0.604	0.238	0.236	0.208	0.216
HARA	0.784	1.03	0.516	0.296	0.11	0.0748	0.101	0.0842	0.873	0.923	0.78	0.445	1.07	0.846	0.687	0.332	0.225	0.309	0.222	0.239
NCI-H2087	0.196	–	0.165	0.152	0.221	–	0.216	0.194	0.644	–	0.616	0.722	1.25	–	1.11	0.948	0.701	0.665	0.66	0.658
NCI-H1437	1.24	1.16	1.12	1.08	0.393	0.437	0.387	0.277	0.689	0.636	0.628	0.595	1.34	1.31	1.29	1.29	0.311	0.3	0.332	0.323
ChaGo-K-1	0.721	0.615	0.616	0.679	0.215	0.218	0.211	0.195	0.488	0.452	0.409	0.328	0.994	0.897	0.892	0.742	0.25	0.266	0.256	0.277
NCI-H650	0.731	0.861	0.941	0.754	0.663	0.747	0.735	0.732	0.418	0.453	0.407	0.468	1.02	1.24	1.07	1.02	0.906	0.892	0.99	0.686
COR-L23	0.713	0.667	0.688	0.736	0.246	0.217	0.147	0.133	0.347	0.41	0.367	0.395	1.08	1.14	0.894	0.981	0.195	0.205	0.195	0.188
COR-L 105	0.641	0.707	0.737	0.479	0.335	0.309	0.355	0.269	0.798	0.676	0.594	0.478	1.04	1.34	0.994	0.598	1.15	0.945	1.11	0.873
LK-2	0.21	0.171	0.21	0.159	0.195	0.155	0.184	0.165	0.779	0.674	0.6	0.385	1.34	1.24	1.05	0.761	0.265	0.262	0.299	0.342
201T	1.04	1.1	0.929	0.539	1	0.949	0.854	0.523	0.899	0.896	0.767	0.623	1.06	1.19	0.859	0.594	0.345	0.311	0.323	0.32
NCI-H596	1.06	1.2	0.893	0.583	0.972	1.17	0.872	0.541	0.722	0.787	0.681	0.593	0.884	0.835	0.709	0.558	0.528	0.551	0.488	0.551
H3255	0.959	1.06	0.848	0.701	0.829	0.591	0.571	0.581	0.616	0.579	0.558	0.491	0.761	0.813	0.849	0.557	0.571	0.494	0.529	0.579
NCI-H647	0.172	0.168	0.158	0.159	0.219	0.262	0.194	0.141	0.646	0.567	0.514	0.373	1.16	1.44	1.21	0.806	0.185	0.2	0.184	0.112
NCI-H2023	0.697	0.983	0.622	0.767	0.381	0.309	0.179	0.199	0.519	0.505	0.414	0.449	0.802	0.804	0.717	0.535	0.194	0.244	0.227	0.19
NCI-H23	0.198	–	0.201	0.191	0.359	0.444	0.309	0.266	0.323	0.321	0.339	0.292	1.22	1.03	0.797	0.651	0.635	0.671	0.533	0.458
NCI-H1944	0.667	0.647	0.783	0.477	0.265	0.257	0.24	0.196	0.431	0.409	0.444	0.331	0.87	0.786	0.832	0.61	0.61	0.579	0.566	0.642
NCI-H1793	0.166	0.186	0.168	0.156	0.367	0.343	0.228	0.126	0.989	1.08	0.731	0.427	0.669	0.809	0.648	0.406	0.926	1.01	0.782	0.673
NCI-H520	0.219	0.211	0.174	0.243	0.378	0.432	0.412	0.31	0.388	0.398	0.286	0.265	0.755	0.731	0.65	0.613	0.662	0.723	0.736	0.407
NCI-H460	0.0282	0.0389	0.0319	0.0347	0.47	0.113	0.278	0.0922	0.48	0.47	0.312	0.386	1	1.13	0.916	0.975	0.0611	0.0661	0.0666	0.0626
EKVX	0.864	0.988	0.795	0.631	0.398	0.379	0.332	0.19	1.01	0.972	0.774	0.409	0.881	0.755	0.744	0.575	0.514	0.349	0.379	0.404
NCI-H358	0.452	0.251	0.395	0.296	0.107	0.104	0.103	0.0932	0.587	0.513	0.526	0.374	0.766	0.626	0.685	0.279	0.158	0.167	0.173	0.159
EPLC-272H	0.331	–	0.257	0.209	0.38	–	0.235	0.19	0.666	1.01	0.729	0.589	0.78	–	0.705	0.37	0.229	0.357	0.256	0.256
NCI-H1395	0.631	0.651	0.646	0.398	0.77	0.81	0.714	0.561	0.437	0.466	0.442	0.434	0.975	0.95	0.9	0.72	0.791	1.09	0.748	0.846
NCI-H2126	0.947	0.957	0.844	0.648	0.833	0.946	0.773	0.638	0.952	0.961	0.656	0.74	1.34	1	1.11	0.983	0.672	0.627	0.711	0.688
LXF-289	0.783	0.732	0.663	0.702	0.219	0.217	0.17	0.0946	1.17	1.08	1.11	0.982	1.05	0.962	0.986	1.03	0.891	0.903	0.888	0.896
NCI-H2009	1.1	1.14	1.04	1.08	0.743	0.734	0.681	0.606	0.706	0.714	0.674	0.69	1.22	1.12	1.22	0.896	0.956	0.878	0.921	1.06
NCI-H2405	0.862	0.529	0.56	0.251	0.741	0.601	0.656	0.391	0.908	0.719	0.756	0.453	1.09	0.855	1.04	0.535	1.11	1	0.974	1.27
NCI-H1755	0.501	0.418	0.48	0.308	0.617	0.604	0.534	0.546	0.888	0.922	0.832	0.863	1.02	0.87	0.833	0.885	0.447	0.469	0.42	0.431
